# Assay results: patent US20060110710A1, “Endodontic ozone therapy” (priority 2001, published 2006)
# Columns and labels:
# [1] = tested on: Lactobacillus acidophilus; experiment: Ozone exposure of bacteria cultures (root canals); format: cell-based; settings: exposed to ozone
# Lactobacillus salivarius = experiment: Ozone exposure of bacteria cultures (root canals); format: cell-based; settings: exposed to ozone
# [2] = tested on: Inflamed human gingivitis; experiment: Effect of ozone on gum disease; format: in vivo; settings: after exposure to ozone
# Source text: Inflamed human gingivitis is exposed to ozone using the techniques herein described.
# [3] = tested on: Microflora from Primary Root Caries; experiment: Ozone effect on microflora from primary root caries ex-vivo; format: cell-based; settings: for Mean ± SE of Total cfu (Log10): after 10 seconds of ozone treatment
# Source text: Primary root carious lesions (PRCL) are a major clinical problem. […] An ozone producing generator (Purezone Ltd., Ipswich, U.K.) was used in this ex-vivo study assessing the use of ozone on PRCL. In this study, soft PRCL requiring restoration were used as these are the most severe type of lesion found in humans. 20 freshly extracted teeth with PRCL requiring restoration were used. After plaque removal using a hand held standard fine nylon fiber sterile toothbrush with sterile water as a lubricant to cleanse the surface, each tooth was then isolated using sterile cotton wool rolls and dried using a dry sterile cotton wool roll. […] Each sample was weighed and immediately placed in 1 ml of Fastidious Anaerobe Broth (FAB). […] They were vortexed for 30 seconds to facilitate the extraction of any micro-organisms from the carious dentine and disperse any aggregates. After decimal dilution with FAB, […] of these was spread on Fastidious Anaerobe Agar (LabM, Bury, […].) supplemented with 5% (v/V) horse blood in an anaerobic chamber at 37° C. for four days. The mean±SE number of each colony type was counted and calculated. The procedure of Example 2 was repeated except that ozonized water was applied to the lesion for 20 seconds. […] The aims of these studies were to evaluate the efficiency of ozone on primary root caries and associated micro-organisms (Streptococcus sobrinus; TH 21 Streptococcus mutans; NCTC 10449). […] In study 2, 40 sterile saliva coated glass beads were put into bijoux bottles with 3 mls of Todd Hewitt broth for control and test groups. S. sobrinus and S. mutans were inoculated and incubated anaerobically overnight. Each glass bead was washed with 2 mls of PBS. […] Subsequently, each glass bead in the test and control groups was placed in 3 mls of Todd Hewitt broth with six more sterile glass beads and were vortexed for 30 seconds. After decimal dilutions, […] were spread on blood agar plates supplemented with 5% (V/V) horse blood and placed in an anaerobic chamber at 37° C. for two days. The number of each colony type was counted and calculated. […] This treatment regime is therefore an effective, quick, conservative and simple method to kill micro-organisms in primary root carious lesions.
# Month ulcerations = experiment: Effect of ozone in the treatment of mouth ulcerations; format: in vivo; settings: exposed to ozone
# [4] = 1H NMR evaluation of the oxidative consumption of salivary biomolecules by ozone; settings: O3 for 30 seconds; unstimulated human saliva 0.60 ml; 1H NMR 600 MHz
# Source text: Ozone is one of nature's most powerful oxidants which accounts for its ability to kill bacteria, spores and viruses. Uniquely, ozone decomposes to a harmless, non-toxic and environmentally safe material (oxygen). In this investigation, a multicomponent evaluation of the oxidative consumption of salivary biomolecules by ozone (O3) has been performed using high resolution proton (^1H) nuclear magnetic resonance (NMR) spectroscopy. The ozone-generating equipment employed in this study was designed by Purezone Ltd. (Ipswich, U.K.). Unstimulated human saliva samples were collected from 8 patients and each of them was divided into two equivalent portions (0.60 ml). The first of these was treated with O3 generated from the above device for a period of 30 seconds; the second group of portions served as controls. Samples were subjected to ^1H NMR analysis at an operating frequency of 600 MHz. […] High field ^1H NMR spectroscopy provides much useful analytical data regarding the fate of O3 in human saliva, information which is of much relevance to its potential therapeutic actions in vivo.
# [5] = tested on: microorganisms associated with bad breath; experiment: Effect of ozone in the treatment of bad breath; format: in vivo; settings: mouth exposed to ozone
# Source text: Bad breath is caused, in part, by the retention and subsequent degradation of dead cellular material, by microorganisms, sloughed off continuously by a normal, healthy mouth.
# [6] = Ozone exposure of bacteria cultures (root canals); format: cell-based, Streptococcus aurous; settings: exposed to ozone
# [7] = tested on: Streptococcus sobrinus; TH 21; experiment: Ozone on S. sobrinus on saliva coated glass beads; format: cell-based; settings: 10 seconds of ozone on saliva coated glass beads
# Source text: The aims of these studies were to evaluate the efficiency of ozone on primary root caries and associated micro-organisms (Streptococcus sobrinus; TH 21 Streptococcus mutans; NCTC 10449). In study 1, 40 soft primary root carious lesions (PRCLs) from freshly extracted teeth were used and randomly divided into two groups to test the exposure to ozone for either 10 or 20 seconds. There was a significant (p<0.001) difference (Mean±SE) between the control samples for either 10 seconds (log10 5.91±0.15) or 20 seconds (log10 6.18±0.21) and ozone treated samples for either 10 seconds (log10 3.57±0.37) or 20 seconds (log10 3.77±0.42). In study 2, 40 sterile saliva coated glass beads were put into bijoux bottles with 3 mls of Todd Hewitt broth for control and test groups. S. sobrinus and S. mutans were inoculated and incubated anaerobically overnight. Each glass bead was washed with 2 mls of PBS. Immediately, 10 seconds of ozone was applied to the glass beads in the test groups. Subsequently, each glass bead in the test and control groups was placed in 3 mls of Todd Hewitt broth with six more sterile glass beads and were vortexed for 30 seconds. After decimal dilutions, […] were spread on blood agar plates supplemented with 5% (V/V) horse blood and placed in an anaerobic chamber at 37° C. for two days. The number of each colony type was counted and calculated. […]
structure (smiles),measurement,setting,value
O=[O+][O-] [ozone],growth of the bacteria cultures,[1],eliminated or inhibited
same,growth of the bacteria cultures,Lactobacillus salivarius,eliminated or inhibited
same,enzyme levels in extracts from inflamed human gingiva,[2],alleviated and/or reduced
same,percentage of micro-organisms killed,[3]; 10 seconds of ozone treatment,more than 99%
same,Mean ± SE of Total cfu (Log10),[3]; soft PRCL of freshly extracted teeth,3.57±0.37 Log10
same,Mean ± SE of Total cfu (Log10),"[3]; soft PRCL of freshly extracted teeth, listed as Ozone",3.57 ± 0.37 Log10
same,"Total cfu, log10, mean±SE","[3]; after 20 seconds of ozone treatment, soft PRCL of freshly extracted teeth",3.77±0.42 log10
same,enzyme levels in the month ulcerations,Month ulcerations,alleviated and/or reduced
same,microorganisms in the ulceration,Month ulcerations,eliminated or reduced
same,effect of O3 treatment on salivary 3-D-hydroxybutyrate,[4],evidence for the O3-mediated oxidation of salivary 3-D-hydroxybutyrate
same,effect of O3 treatment on salivary methionine,[4],oxidation of the volatile sulphur compound precursor methionine to its corresponding sulphoxide
same,effect of O3 treatment on salivary polyunsaturated fatty acids,[4],oxidative consumption of salivary polyunsaturated fatty acids
same,effect of O3 treatment on salivary pyruvate,[4],oxidative decarboxylation of the salivary electron-donor pyruvate
same,enzyme levels in the month,[5],alleviated and/or reduced
same,microorganisms associated with bad breath,[5],eliminated or reduced
same,growth of the bacteria cultures,[6],eliminated or inhibited
same,"colony count, log10, Mean±SE",[7],1.09±0.36 log10
